Results: patent US5932618A, “Anti-viral agents and methods relating to the use thereof” (Signal Pharmaceuticals, Inc., priority 1996, dated 1999)

Tests used:
[1] = tested on: HCMV pol promoter (pol-luc cells); experiment: Luciferase reporter assay in pol-luc cells 48 hours after HCMV infection; format: cell-based; conditions: 48 hours after infection with 3 pfu/cell HCMV, increasing amounts of compound in DMSO
Method: The Pol promoter sequence, from position -425 to +15, was amplified by PCR using cosmid pCM1058 (Peter Ghazal) as template. The primers are: 5'-[…]-3' (sense primer), and 5'-[…]-3' (antisense primer). These oligo primers introduced a HindIII restriction site at the 5' and 3' end of Pol promoter fragment. The HindIII digested PCR fragment was inserted into HindIII digested pGL2-basic luciferase reporter plasmid (Promega, Madison, Wis.). The promoter direction was determined and PCR fidelity of the promoter sequence was confirmed by sequencing.
(§1) B. Establishment of Stable Cell Lines
(§2) The HCMV permissive human glioblastoma cell line U373 MG was transfected with the constructs described above. […]
(§3) Cells were infected with HCMV (Towne strain, obtained from American Type Culture Collection, Rockville, Md.) at 5-10 pfu/cell. […] Plates were read immediately in a Packard TopCount™ (Packard, Hartford, Conn.). Clones showing high luciferase inducibility were further analyzed by PCR to ascertain the integrity of the reporter transcriptional unit integrated into the genomic DNA. […]
(§4) Cells are maintained in DMEM (Mediatech, Herndon, Va.) supplemented with 10% fetal bovine serum (Gemini Bioproducts, Inc., Calabasas, Calif.), 1% antimycotic/antibiotic (GIBCO, Baltimore, Md.) and 0.6 μg/mL G148 (GIBCO, Baltimore, Md.). […] Luciferase activity (luminescence) in each well is then measured using a Packard Topcount™. […]

[2] = tested on: HCMV pp28 promoter (pp28-luc cells); experiment: Luciferase reporter assay in pp28-luc cells 48 hours after HCMV infection; format: cell-based; conditions: 48 hours after infection with 3 pfu/cell HCMV, increasing amounts of compound in DMSO
Source text: The pp28 promoter sequence, from position -609 to +106, was amplified by PCR using cosmid pCM1 (Peter Ghazal, Scripps Research Institute) as a template. The oligonucleotide primer sequences are:
These oligonucleotides primers introduced a KpnI restriction site at the 5'-end and a HindIII site at the 3'-end of the pp28 promoter fragment. Unique sites, KpnI and HindIII allowed directional cloning into the pGL2-basic luciferase reporter plasmid (Promega, Madison, Wis.), resulting in the pp28-luc promoter construct shown in FIG. 2. The PCR fidelity of the pp28 promoter sequence was confirmed by sequencing.
B. Establishment of Stable Cell Lines […]
as §3, §4

[3] = tested on: MIEP viral immediate early promoter (MIEP-luc cells); experiment: Luciferase reporter assay in MIEP-luc cells 48 hours after HCMV infection; format: cell-based; conditions: 48 hours after infection with 3 pfu/cell HCMV, increasing amounts of compound in DMSO
Method: The MIEP promoter sequence, from position -1145 to +122, was amplified by PCR using plasmid pSE as a template. The primers are: 5'-[…]-3' (sense primer), and 5'[…]-3' (antisense primer). These oligo primers introduced a KpnI restriction site at the 5' and 3' end of MIEP promoter fragment. The KpnI digested PCR fragment was inserted into KpnI digested pGL2-basic luciferase reporter plasmid (Promega, Madison, Wis.). The promoter direction was determined and PCR fidelity of the promoter sequence was confirmed by sequencing.
as §1, §2, §3, §4

[4] = tested on: β-actin cellular promoter (β-actin-luc cells); experiment: Luciferase reporter assay in β-actin-luc cells 48 hours after HCMV infection; format: cell-based; conditions: 48 hours after infection with 3 pfu/cell HCMV, increasing amounts of compound in DMSO
Method: This Example illustrates the use of the cell lines of Example 1 for identifying inhibitors of viral gene expression.
Cells are maintained in DMEM (Mediatech, Herndon, Va.) supplemented with 10% fetal bovine serum (Gemini Bioproducts, Inc., Calabasas, Calif.), 1% antimycotic/antibiotic (GIBCO, Baltimore, Md.) and 0.6 μg/mL G148 (GIBCO, Baltimore, Md.). Cells are seeded at 3×10^4 cells per well in flat-bottom, tissue culture treated 96-well plates (Corning, Corning, N.Y.) and incubated for about 18 hours in a 37° C. humidified environment. Appropriately diluted candidate modulators are then added directly to the media on cells to a final concentration of 10 μg/mL, and the plates incubated for 30 minutes at 37° C. HCMV (Towne strain, ATCC) is then added at 3 pfu/cell. Forty-eight hours post-infection, the cells are washed once with PBS (without Ca^++ and Mg^++) and lysed in the 96-well plate. An aliquot of the cell lysate is then transferred to a black 96-well plate (Packard, Hartford, Conn.) and luciferase assay reagent (Promega, Madison, Wis.) is added to the plate. Luciferase activity (luminescence) in each well is then measured using a Packard Topcount™. […]
This Example illustrates anti-viral activity of representative compounds of this invention as determined in accordance with Examples 1-4 above. […]

[5] = tested on: HCMV viral DNA replication; experiment: Viral DNA replication determined by dot blot analysis in stable clones; format: cell-based, HCMV (Towne strain); conditions: in presence of PAA (200-400 μg/ml), three different stable clones, data not shown
Method: The response of the integrated reporter plasmids to HCMV infection was also examined in the presence and absence of the well characterized viral DNA inhibitor phosphonoacetic acid (PAA, Sigma, St. Louis, Mo., 99.7 purity). The results are presented in FIG. 7 (P-luc), FIG. 8 (pol-luc) and FIG. 9 (pp28-luc). Cells were seeded into a 96 well plate in G418 selection media. The following day, cells were treated in the absence (lanes 1 and 4, panels B and C) or presence of PAA at 200 μg/mL (lanes 2 and 5, panels B and C) and 400 μg/mL (lanes 3 and 6, panels B and C). Cells were then superinfected with HCMV at 10 pfu/cell. Forty-eight hours post-infection, cells were harvested and isolated for either mRNA preparation, protein lysates or the luciferase assay. Luciferase activity measured as described above is shown in panels A of FIGS. 7-9. Northern analyses were performed on mRNA using probes for luciferase, MIEP-, pol- or pp28-specific mRNA and beta-actin mRNA to quantitate the amount of mRNA in each lane (panels B). Protein lysates were used for western blot analysis using antibody specific against luciferase (panels C). […] Viral DNA replication in presence of PAA was inhibited by nearly 90 percent as determined by dot blot analysis in three different stable clones (data not shown). […]

U373 MG cells = format: cell-based, human; conditions: PAA 200-400 μg/ml, MTS cytotoxicity assay, data not shown

SMILES: COc1cc([N+](=O)[O-])ccc1NC(=O)c1cc(Cl)c2ccccc2c1O [compound (V)]
- inhibition of luciferase reporter expressed from the HCMV pol promoter [1]: specific inhibition
- inhibition of luciferase reporter expressed from the HCMV pp28 promoter [2]: specific inhibition
- inhibition of reporter gene expressed from the MIEP viral immediate early promoter [3]: no inhibition
- inhibition of reporter gene expressed from the β-actin cellular promoter [4]: no inhibition

SMILES: O=C(O)CP(=O)(O)O [PAA, phosphonoacetic acid]
- inhibition of viral DNA replication [5]: ~90%
- toxicity to U373 MG cells (U373 MG cells): not toxic

SMILES: O=C(Nc1cccc([N+](=O)[O-])c1)c1cc(Cl)c2ccccc2c1O [compound (IV)]
- inhibition of luciferase reporter expressed from the HCMV pol promoter [1]: specific inhibition
- inhibition of luciferase reporter expressed from the HCMV pp28 promoter [2]: specific inhibition
- inhibition of reporter gene expressed from the MIEP viral immediate early promoter [3]: no inhibition
- inhibition of reporter gene expressed from the β-actin cellular promoter [4]: no inhibition
